pIC50: −log10 of the molar value.

This assay relates to N2a cells. Description: In vitro cell-based neurite length (N2a) assay. As to conditions: Mus musculus, neurite retraction induced by 5 uM LPA. On the procedure:
In Vitro Cell-Based Neurite Length (N2a) Assay
N2a cells are maintained in DMEM/FBS at 37 C and 5% CO2. For the experiment the cells were plated on a poly-D-lysine coated 96-well tissue culture plate. After attachment, cell differentiation was induced for 2 days by addition of 10 uM retinoic acid. Cells were treated for 1 h with a dilution of compounds in 0.3% DMSO final concentration before neurite retraction was induced by 5 uM LPA. Cells were stained for tubulin and nuclei and images were acquired on an INCell 1000 workstation. Images were analyzed using the developer toolbox and neurite length was quantitated.

By pIC50 is commonly meant the IC50 on a negative log10 scale, so that one unit is a factor of ten. In turn, `COc1ccc2c(c1)CC(C(=O)Nc1ccc(-c3cn[nH]c3)cc1)CO2` (stereo not shown) [Example 92, 6-methoxy-chroman-3-carboxylic acid [4-(1H-pyrazol-4-yl)-phenyl]-amide] had a pIC50 of 7.57.

The record behind these values is patent US20110150833A1, “BENZOPYRANS AND ANALOGS AS RHO KINASE INHIBITORS” (The Scripps Research Institute, priority 2007, published 2011).
